Several values for one entry are separate records, joined by “and”; a condition that tells them apart may be missing. Identical values can stand only once.
What was measured:
Assay type in all cases: cell-based
[1] = test system: menschlichen Keratinocyten; experiment: Number of human keratinocytes and cornified squamous cells formed in presence of compound
Excerpt: (§1) Die Aktivität der Verbindungen der Formel I als Mittel für die Behandlung von hyperproliferativen Hautkrankheiten kann auch durch Ermittlung der Anzahl von menschlichen Keratinocyten, von verhornten Plattenepithelzellen und von Plattenepithel-Karzinomzellenlinien (SCC-115), die sich in Gegenwart der besagten Verbindungen bilden.
(§2) Die Resultate sind in den Tabellen 4 und 5 angegeben: Tabelle 4

[2] = test system: gezüchteten menschlichen Keratinocyten; experiment: Morphological differentiation of cultured human keratinocytes (cell counts by cell type)
[3] = test system: menschlicher promyelocytischer Tumorzellen HL-60; experiment: Differentiation-inducing (DI) effect on HL-60 cells; settings: for EC50: Homo sapiens, concentration that causes 50% differentiation of the cells, read-out: ED50 (the source's name)
Excerpt: (§3) Zum Nachweis der Aktivität der Verbindungen der Formel I als Mittel zur Behandlung von neoplastischen Krankheiten wurden die antiproliferativen (AP) und die Differenzierung induzierenden Effekte (DI) der Verbindungen A bis F sowie die Anzahl menschlicher promyelocytischer Tumorzellen HL-60 ermittelt. In Tabelle 6 ist der AP Effekt als prozentuale Reduktion der Anzahl Zellen und als Konzentration ID₅₀, die die Zellenanzahl um 50% reduziert, angegeben. Der DI Effekt ist angegeben als Prozentsatz der differenzierten Zellen und als Konzentration ED₅₀ der Verbindungen, die eine 50%ige Differenzierung der Zellen bewirkt.

[4] = test system: Plattenepithel-Karzinomzellenlinien (SCC-15); experiment: Number of squamous carcinoma cell line cells formed in presence of compound
Excerpt: as §1, §2

[5] = test system: menschlicher promyelocytischer Tumorzellen HL-60; experiment: Antiproliferative (AP) effect on HL-60 cells; settings: for IC50: Homo sapiens, concentration that reduces the cell number by 50%, read-out: ID50 (the source's name)
Excerpt: as §3

[6] = Konzentration 0.01 (head prints x10 M)
[7] = Konzentration 0.1 (head prints x10 M)
[8] = Konzentration 1 (head prints x10 M)
[9] = Konzentration 10 (head prints x10 M)
[10] = Konzentration 100 (head prints x10 M)

Structure (SMILES)	Anzahl Keratinocten (x10⁴) ([1]; Dosis 10⁻¹² M)	Anzahl verhornte Plattenepithelzellen (x10²) ([1]; Dosis 10⁻¹² M)	Anzahl Keratinocten (x10⁴) ([1]; Dosis 10⁻¹⁰ M)	Anzahl verhornte Plattenepithelzellen (x10²) ([1]; Dosis 10⁻¹⁰ M)	Anzahl Keratinocten (x10⁴) ([1]; Dosis 10⁻⁶ M)	Anzahl verhornte Plattenepithelzellen (x10²) ([1]; Dosis 10⁻⁶ M)	Anzahl Keratinocten (x10⁴) ([1]; Dosis 10⁻⁸ M)	Anzahl verhornte Plattenepithelzellen (x10²) ([1]; Dosis 10⁻⁸ M)	Anzahl Zellen (x10⁴): Basalzellen ([2]; Dosis 10⁻¹⁰ M) [x10⁴]	Anzahl Zellen (x10⁴): Gesamtanzahl ([2]; Dosis 10⁻¹⁰ M) [x10⁴]	Anzahl Zellen (x10⁴): Plattenepithelzellen ([2]; Dosis 10⁻¹⁰ M) [x10⁴]	Anzahl Zellen (x10⁴): verhornte Plattenepithelzellen ([2]; Dosis 10⁻¹⁰ M) [x10⁴]	Anzahl Zellen (x10⁴): Basalzellen ([2]; Dosis 10⁻⁶ M) [x10⁴]	Anzahl Zellen (x10⁴): Gesamtanzahl ([2]; Dosis 10⁻⁶ M) [x10⁴]	Anzahl Zellen (x10⁴): Plattenepithelzellen ([2]; Dosis 10⁻⁶ M) [x10⁴]	Anzahl Zellen (x10⁴): verhornte Plattenepithelzellen ([2]; Dosis 10⁻⁶ M) [x10⁴]	Anzahl Zellen (x10⁴): Basalzellen ([2]; Dosis 10⁻⁸ M) [x10⁴]	Anzahl Zellen (x10⁴): Gesamtanzahl ([2]; Dosis 10⁻⁸ M) [x10⁴]	Anzahl Zellen (x10⁴): Plattenepithelzellen ([2]; Dosis 10⁻⁸ M) [x10⁴]	Anzahl Zellen (x10⁴): verhornte Plattenepithelzellen ([2]; Dosis 10⁻⁸ M) [x10⁴]	also measured
C=C1/C(=C\C=C2/CCC[C@]3(C)C([C@H](C)CC#CC(C)(C)O)=CC[C@@H]23)C[C@@H](O)C[C@@H]1O [Verbindung E]	187.36±15.33	1136.63± 383.66	175.34±10.19	1444.87± 312.47	41.95± 7.53	1916.83± 887.66	145.79±15.66	2113.62±1049.33	63±2	86±4	23±2	114±5	41±1	78±3	27±2	147±4	53±2	82±3	29±1	141±5	EC50 [3]: 1 nM; Differenzierte Zellen (%) [3, 6]: 9%; Differenzierte Zellen (%) [3, 7]: 50%; Differenzierte Zellen (%) [3, 8]: 96%; Differenzierte Zellen (%) [3, 9]: 98%; Anzahl Zellenlinien (SCC-15) (x10⁵) ([4]; Dosis 10⁻¹² M): 6.98±1.68 x10⁵; Anzahl Zellenlinien (SCC-15) (x10⁵) ([4]; Dosis 10⁻¹⁰ M): 5.89±1.58 x10⁵; Anzahl Zellenlinien (SCC-15) (x10⁵) ([4]; Dosis 10⁻⁶ M): 0.40±0.98 x10⁵ and 0.49±0.13 x10⁵; Anzahl Zellenlinien (SCC-15) (x10⁵) ([4]; Dosis 10⁻⁸ M): 5.76±1.53 x10⁵; IC50 [5]: 0.7 nM; % Reduktion der Anzahl Zellen [5, 6]: 6%; % Reduktion der Anzahl Zellen [5, 7]: 59%; % Reduktion der Anzahl Zellen [5, 8]: 80%; % Reduktion der Anzahl Zellen [5, 9]: 81%
C=C1/C(=C\C=C2/CCC[C@]3(C)C([C@H](C)CCCC(C)(C)O)=CC[C@@H]23)C[C@@H](O)C[C@@H]1O [Verbindung A, 1,25-Dihydroxy-16-dehydrocholecalciferol]	114.91±10.95	1662.2± 420.1	130.37±24.32	3973.8± 126.99	109.22±15.87	8323.5± 157.6	120.67±16.87	7235.2± 55.5	115±7	132±8	17±1	27±2	71±5	101±7	30±2	39±2	106±8	128±10	22±2	33±2	EC50 [3]: 2 nM; Differenzierte Zellen (%) [3, 6]: 3%; Differenzierte Zellen (%) [3, 7]: 16%; Differenzierte Zellen (%) [3, 8]: 92%; Differenzierte Zellen (%) [3, 9]: 97%; Differenzierte Zellen (%) [3, 10]: 98%; IC50 [5]: 2 nM; % Reduktion der Anzahl Zellen [5, 6]: 10%; % Reduktion der Anzahl Zellen [5, 7]: 33%; % Reduktion der Anzahl Zellen [5, 8]: 84%; % Reduktion der Anzahl Zellen [5, 9]: 85%; % Reduktion der Anzahl Zellen [5, 10]: 85%

Source: patent publication EP0325279A1, “Dehydrocholecalciferol derivatives” (F. HOFFMANN-LA ROCHE AG, priority 1988, dated 1989)
